Measured values: article PMC4121215, “Cytotoxic Constituents from the Rhizomes of Curcuma zedoaria” (The Scientific World Journal, 2014)
In brackets after ≈: the same amount, converted by molar mass. Where two headings read alike, the source gives them in different places.

Key:
Assay type in all cases: cell-based
[1] = test system: HT-29 (colon cancer); assay: MTT cytotoxicity assay, HT-29; conditions: for IC50: Homo sapiens, HT-29, MTT, 72 h, mean ± SD of three replicates; for IC50 / SI (selectivity index) HT-29: isolated compounds; for antiproliferative/cytotoxic activity against HT-29 (in words): MTT assay; for SI (selectivity index) HT-29: IC50 HUVEC / IC50 HT-29
Procedure: (§1) The human cell lines MCF-7 (breast cancer), Ca Ski (cervical cancer), and HT-29 (colon cancer) were cultured as monolayer in RPMI 1640 growth media. HUVEC (human umbilical vein endothelial cells) and PC-3 (prostate cancer) cells were cultured in DMEM. All cells were purchased from the American Tissue Culture Collection (ATCC, USA) except for human umbilical vein endothelial cells (HUVEC) which were obtained from ScienCell Research Laboratories (Carlsbad, CA). All the media were supplemented with 10% v/v foetal bovine serum (FBS), 100 μg/mL penicillin/streptomycin, and 50 μg/mL amphotericin B. The cells were cultured in a 5% CO2 incubator at 37°C.
(§2) Cell viability was investigated using 3-(4, 5-dimethylthiazol-2-yl)-2, 5-diphenyltetrazolium bromide (MTT) assay. Cells were detached from the […] tissue culture flask when it achieved 80% confluency. The detached cells were pellet by centrifugation (1,000 rpm; 5 minutes). Cells (3.0 × 10^4 cells/mL) were seeded onto a 96-well microtiter plate (Nunc). The cells were incubated at 37°C CO2 incubator for 24 h to give adherent cells. The test compounds (1–100 μg/mL) were added onto the 96-well microtiter plate containing adherent cells. The untreated cells were incubated in 10% media containing 0.5% DMSO (without addition of any test compounds/extracts). This mixture was regarded as the negative control whereas doxorubicin as the positive control. The plates were incubated for 72 h at 37°C in a 5% CO2 incubator. After 72 h, the media were removed and 100 μL of fresh medium and 20 μL of MTT (Sigma, filter sterile, 5 mg/mL) were added to each well and further incubated for 4 hours (37°C) after which the media were substituted with 150 μL DMSO. The 96-well microtiter plates were then agitated at room temperature onto an incubator shaker to dissolve the formazan crystals. The absorbance (A) of the content of the plates was measured at 540 nm using a microplate reader. The percentage of inhibition of each test sample was calculated according to the following formula: Percentage of inhibition (%) = (A control − A sample)/A control × 100%. The average of three replicates was then obtained. The IC50 for each extract was extrapolated from the graphs of the percentage inhibition versus concentration of test agents. Cytotoxicity of each test agent is expressed as IC50 value. The IC50 value is the concentration of test agents that cause 50% inhibition or cell death, averaged from the three experiments. The selectivity index (SI) was also calculated as described by using the ratio between IC50 of the extract or compounds on normal cell lines (HUVEC) and IC50 of the tested extract or compounds on cancerous cell lines. Selectivity index (SI) values equal or greater than three were considered to have a high selectivity towards cancerous cells. An SI value denotes the selectivity of the sample to the tested cell lines.

[2] = test system: Ca Ski (cervical cancer); assay: cells; conditions: for IC50: Homo sapiens, Ca-Ski, MTT, 72 h, mean ± SD of three replicates; for IC50 / SI (selectivity index) Ca Ski: isolated compounds; for SI (selectivity index) Ca Ski: IC50 HUVEC / IC50 Ca Ski
Procedure: as §1, §2

[3] = test system: HUVEC (human umbilical vein endothelial cells); assay: cells; conditions: for IC50: Homo sapiens, HUVEC, isolated compounds, MTT, 72 h, normal cells
Procedure: as §1, §2

[4] = test system: MCF-7 (breast cancer); assay: cells; conditions: for IC50: Homo sapiens, MCF7, MTT, 72 h, mean ± SD of three replicates; for IC50 / SI (selectivity index) MCF-7: isolated compounds; for SI (selectivity index) MCF-7: IC50 HUVEC / IC50 MCF-7
Procedure: as §1, §2

[5] = test system: PC-3 (prostate cancer); assay: MTT cytotoxicity assay, PC-3; conditions: for IC50: Homo sapiens, MTT, 72 h, mean ± SD of three replicates; for IC50 / SI (selectivity index) PC-3: isolated compounds; for antiproliferative/cytotoxic activity against PC-3 (in words): MTT assay; for SI (selectivity index) PC-3: IC50 HUVEC / IC50 PC-3
Procedure: as §1, §2

Row | Compound | IC50 [1] [µg/mL] | antiproliferative/cytotoxic activity against HT-29 (in words) [1] | SI (selectivity index) HT-29 [1] | IC50 [2] [µg/mL] | antiproliferative/cytotoxic activity against Ca Ski (in words) ([2]; MTT assay) | SI (selectivity index) Ca Ski [2] | IC50 [3] [µg/mL] | IC50 [4] [µg/mL] | antiproliferative/cytotoxic activity against MCF-7 (in words) ([4]; MTT assay) | SI (selectivity index) MCF-7 [4] | IC50 [5] [µg/mL] | antiproliferative/cytotoxic activity against PC-3 (in words) [5] | SI (selectivity index) PC-3 [5] | antiproliferative/cytotoxic activity against Ca Ski (in words) [2] | toxicity towards normal cells HUVEC (in words) [3] | antiproliferative/cytotoxic activity against MCF-7 (in words) [4]
1 | C=C1CC[C@H]2C(C)(C)CCC[C@]2(C)[C@H]1C/C=C(/C=O)CC=O [Compound 1, labda-8(17),12 diene-15,16 dial] | 21.5 ± 3.1 (≈ 71.1 µM) | moderate inhibitory activity | 2.1 | 14.5 ± 0.1 (≈ 47.9 µM) | moderate cytotoxicity | 3.1 | 45.3 ± 1.9 (≈ 150 µM) | 16.3 ± 0.2 (≈ 53.9 µM) | moderate cytotoxicity | 2.8 | 26.3 ± 2.4 (≈ 87 µM) | moderate inhibitory activity | 1.7 | – | – | –
2 | CC(C)=C1CC(=O)[C@@H](C)CC/C=C(\C)CC1=O [Compound 2, dehydrocurdione] | 22.7 ± 2.4 (≈ 96.9 µM) | moderate inhibitory activity | 1.1 | 21.7 ± 1.1 (≈ 92.6 µM) | – | 1.1 | 24 ± 2.1 (≈ 102 µM) | 33 ± 1.1 (≈ 141 µM) | – | 0.7 | 19.1 ± 2.8 (≈ 81.5 µM) | moderate inhibitory activity | 1.3 | – | – | –
3 | CC1=CC2C(=C(C)C)C(=O)C=C(C)C2CC1 (stereo not shown) [Compound 4, comosone II] | – | – | – | 76 ± 1.2 (≈ 351 µM) | – | – | – | > 100 | – | – | – | – | – | – | – | –
4 | CC1=CC(=O)C(=C(C)C)C[C@H]2[C@H]1CC[C@]2(C)O [Compound 6, procurcumenol] | 15.5 ± 2.3 (≈ 66.1 µM) | good cytotoxic effect | 1.1 | 62.4 ± 0.3 (≈ 266 µM) | – | 0.3 | 16.3 ± 1 (≈ 69.6 µM) | 16.1 ± 2.2 (≈ 68.7 µM) | – | 1.0 | 13.3 ± 1.7 (≈ 56.8 µM) | good cytotoxic effect | 1.2 | – | – | –
5 | CC(C)=C1C/C=C(\C)CC/C=C(\C)CC1=O [Compound 7, germacrone] | 42.9 ± 4.1 (≈ 196 µM) | – | 1.7 | 39.3 ± 1.2 (≈ 180 µM) | – | 1.9 | 73.7 ± 0.3 (≈ 338 µM) | 59.1 ± 2.9 (≈ 271 µM) | – | 1.2 | 55.2 ± 4.9 (≈ 253 µM) | – | 1.3 | – | – | –
6 | CC1=CC2(O)OC3(CC2=C(C)C)C(C)CCC13 (stereo not shown) [Compound 10, 9-isopropylidene-2,6-dimethyl-11-oxatricyclo[6.2.1.0^1,5]undec-6-en-8-ol] | – | – | – | > 100 | – | < 0.7 | 71.7 ± 6.1 (≈ 306 µM) | > 100 | – | < 0.7 | – | – | – | – | – | –
7 | C/C1=C\Cc2c(C)coc2C/C(C)=C/CC1 [Compound 11, furanodiene] | 47.2 ± 4.4 (≈ 218 µM) | – | 0.9 | – | – | – | 40.9 ± 2.6 (≈ 189 µM) | 36.5 ± 2.6 (≈ 169 µM) | – | 1.1 | 39.5 ± 4.5 (≈ 183 µM) | – | 1.0 | – | – | –
8 | CC1=CCCC2(C)OC2CC(=C(C)C)C(=O)C1 (stereo not shown) [Compound 12, germacrone-4,5-epoxide] | 39.6 ± 4.6 (≈ 169 µM) | – | 1.2 | – | – | – | 48.4 ± 4.7 (≈ 207 µM) | 37.2 ± 4 (≈ 159 µM) | – | 1.3 | 43.9 ± 7.2 (≈ 187 µM) | – | 1.1 | – | – | –
9 | C=C1CC[C@H]2C(C)(C)CCC[C@]2(C)[C@H]1C/C=C(/C=O)CC(OC)OC [Compound 13, calcaratarin A] | 48.3 ± 5.1 (≈ 139 µM) | – | 1.0 | – | – | – | 47.3 ± 4.2 (≈ 136 µM) | 62.5 ± 4.8 (≈ 179 µM) | – | 0.8 | 41.7 ± 3.4 (≈ 120 µM) | – | 1.1 | – | – | –
10 | C=C1CC(=O)C(=C(C)C)C[C@H]2[C@H]1CC[C@]2(C)O [Compound 14, isoprocurcumenol] | 51.6 ± 3.9 (≈ 220 µM) | – | 0.9 | – | – | – | 45.1 ± 3 (≈ 192 µM) | 58.8 ± 4.2 (≈ 251 µM) | – | 0.8 | 37.4 ± 4.5 (≈ 160 µM) | – | 1.2 | – | – | –
11 | CC(C)=C1C/C=C(\C)CC[C@H]2O[C@@]2(C)CC1=O [Compound 15, germacrone-1,10-epoxide] | 72.8 ± 8.3 (≈ 311 µM) | – | 0.8 | – | – | – | 55.5 ± 1.6 (≈ 237 µM) | 61.2 ± 5.8 (≈ 261 µM) | – | 0.9 | 53.2 ± 4.9 (≈ 227 µM) | – | 1.0 | – | – | –
12 | C=C(C)[C@@H]1CC[C@H](C)[C@]12CC(=C(C)C)C(=O)O2 [Compound 17, curcumanolide A] | 21.3 ± 3.2 (≈ 90.9 µM) | moderate inhibitory activity | 1.0 | – | – | – | 21.7 ± 7 (≈ 92.6 µM) | 29.8 ± 3.1 (≈ 127 µM) | – | 0.7 | 18.8 ± 2.4 (≈ 80.2 µM) | moderate inhibitory activity | 1.2 | – | – | –
13 | C=C(C)C(=O)C[C@]12OC(=O)C=C(C)[C@@H]1CC[C@@H]2C [Compound 18, curcuzedoalide] | 58.2 ± 3.5 (≈ 234 µM) | – | 0.8 | – | – | – | 45.3 ± 7.8 (≈ 182 µM) | 49.8 ± 3.6 (≈ 201 µM) | – | 0.9 | 62.1 ± 8.1 (≈ 250 µM) | – | 0.7 | – | – | –
14 | Cc1cc2oc(=O)c(C)c-2cc2c1CC[C@@H]2C [Compound 19, gweicurculactone] | 35.7 ± 5.8 (≈ 156 µM) | – | 2.0 | – | – | – | 71.7 ± 6.1 (≈ 314 µM) | 31.2 ± 3.2 (≈ 137 µM) | – | 2.3 | 38.3 ± 2.2 (≈ 168 µM) | – | 1.9 | – | – | –
15 | COc1cccc2c1C(=O)c1c(O)c3c(c(O)c1C2=O)C[C@@](O)(C(=O)CO)C[C@@H]3O[C@H]1C[C@H](N)[C@H](O)[C@H](C)O1 [doxorubicin, reference compound] | – | – | – | 0.2 ± 1 (≈ 0.368 µM) | – | – | 1.4 (≈ 2.58 µM) | 0.1 (≈ 0.184 µM) | – | – | – | – | – | – | – | –
16 | Hexane | – | – | – | – | – | – | – | – | – | – | – | – | – | high inhibitory activity | low toxicity | high inhibitory activity
